The values that follow come from patent EP0429304A2, “Pyridone-carboxylic acid derivatives and their use as veterinary medicines” (SHIONOGI SEIYAKU KABUSHIKI KAISHA trading under the name of …, priority 1989, dated 1991).

Read-outs that look alike come from different tables or passages of the source.

Experiment [1] deals with Staphylococcus aureus (S.au) 209P. The experiment can be described thus: In vitro sensitivity test (agar dilution method). As to conditions: 37°C, 20 to 24 hours. It counts as cell-based. The protocol: (§1) Survey of the sensitivity of the compound (I) to various strains of microorganisms was performed by a liquid dilution method […] an agar dilution method, in which the bacteria used were of animal origin and included the following strains (15 strains out of 11 bacteria): Chicken-origin strain: Mycoplasma gallisepticum (MG), Mycoplasma synoviae (MS), Hemophilus paragallinarum (H.pg) and Escherichia coli (E.coli); Pig-origin strain: Mycoplasma hyopneumoniae (Mh), Hemophilus pleuropneumonia (H.pp) and Bordetella bronchiseptica (B.br); Fish-origin strain: Pasteurella piscicida (P.pis) and Streptococcus sp (Str.sp); others: Escherichia coli (E. coli), Salmonella typhimurium (S.typhi) and Staphylococcus aureus (S.au).
(§2) Of these bacteria, the strains belonging to MG, MS and Mh were cultured at 37°C for 7 days by a liquid dilution method, of which the culture medium comprised: 12 % horse-serum added "PPLO" (agar manufactured by Difco) medium for MG; 12 % pig-serum, 0.01 % βNAD (nicotinamide adenine dinucleotide) added Frey medium for MS; 0.5 % lactoalbumin added Hank's solution, 10 % horse-serum, 0.5 % yeast extract (25 %) for Mh, and the agar dilution method was applied to the strains belonging to H.pg, H.pp, S.typhi, E.coli, S.au and B.br. Specifically, the H.pg strain was cultured in a 5 % chicken-serum added chicken bouillon medium and the H.pp strain was cultured in a heart infusion agar added with 10 % sheep defibered blood and 0.05 % βNAD. In case of the H.pg and P.pp strains, observation was made after cultivation at 37°C for 20 hours under 10 % CO₂. Mueller Hinton agar (Difco) was used for the strains belonging to S.typhi, E.coli, S.au and B.br, and observation was made after cultivation at 37°C for 20 to 24 hours. P.pis and Str.sp, both being of fish-origin, were respectively cultured at 25°C for 40 to 48 hours in a 1.5 % NaCl added heart infusion agar and in a sensitive disk medium.
Background: In agar dilution the substance is mixed into plates at graded concentrations.

Experiment [2] deals with Hemophilus pleuropneumonia (H.pp) M-1. Kind of experiment: In vitro sensitivity test (agar dilution method). Format: cell-based. As to conditions: 37°C, 20 hours, 10 % CO₂. The procedure: as §1, §2
Experiment [3] deals with Bordetella bronchiseptica (B.br) ABU-1. The experiment can be described thus: In vitro sensitivity test (agar dilution method). It counts as cell-based. To be noted: 37°C, 20 to 24 hours. The procedure:
as §1, §2

The subject of experiment [4] is Escherichia coli (E.coli) JC-2. The experiment can be described thus: In vitro sensitivity test (agar dilution method). Format: cell-based. As to conditions: 37°C, 20 to 24 hours. The procedure:
as §1, §2

The subject of experiment [5] is Salmonella typhimurium (S.typhi) 13311. The experiment can be described thus: In vitro sensitivity test (agar dilution method). It counts as cell-based. As to conditions: 37°C, 20 to 24 hours. The protocol:
as §1, §2

Experiment [6] concerns TS-resistant strain of MG. Format: in vivo, chicken. As to conditions: for antimicrobial activity compared with ERFX: in vivo, po; for Infectious index Left air sack + / Infectious index Left air sack ++ / Infectious index Left air sack +++ / Infectious index Left air sack - / Infectious index Right air sack + / Infectious index Right air sack ++ / Infectious index Right air sack +++ / Infectious index Right air sack -: count of fowl; for Infectious index Left air sack + / Infectious index Left air sack ++ / Infectious index Left air sack +++ / Infectious index Left air sack - / Infectious index Right air sack + / Infectious index Right air sack ++ / Infectious index Right air sack +++ / Infectious index Right air sack - / Number of fowl having air sack lesions / Number of infected fowl/Number of fowl tested: 9-days chicken; for Infectious index Left air sack + / Infectious index Left air sack ++ / Infectious index Left air sack +++ / Infectious index Left air sack - / Infectious index Right air sack + / Infectious index Right air sack ++ / Infectious index Right air sack +++ / Infectious index Right air sack - / Number of fowl having air sack lesions: 1.7 x 10³ CFU/fowl; for Number of infected fowl/Number of fowl tested: 3.5 x 10³ CFU/fowl.

In experiment [7] the test system is Pasteurella piscicida (P.pis) No. 2. The experiment can be described thus: In vitro sensitivity test. It counts as cell-based. To be noted: 25°C, 40 to 48 hours. The procedure: as §1, §2
Experiment [8] concerns Streptococcus sp (Str.sp) SNO6119. The experiment can be described thus: In vitro sensitivity test. Format: cell-based. To be noted: 25°C, 40 to 48 hours. The procedure: as §1, §2
Experiment [9] deals with Mycoplasma gallisepticum (MG) S6. Kind of experiment: In vitro sensitivity test (liquid dilution method). Format: cell-based. As to conditions: 37°C, 7 days. The protocol:
as §1, §2

In experiment [10] the test system is Mycoplasma hyopneumoniae (Mh) ST-11. Kind of experiment: In vitro sensitivity test (liquid dilution method). It counts as cell-based. As to conditions: 37°C, 7 days. The procedure: as §1, §2
The next experiment has as its system TS-resistant MG. Kind of experiment: Experimental MG infection to chicken, through bait. Format: in vivo. As to conditions: 9-days chicken, 6.6 x 10³ CFU/fowl, dissection 6th day after inoculation.

Regarding `Cl.N[C@H]1CC[C@H]2CN(c3c(F)cc4c(=O)c(C(=O)O)cn(C5CC5)c4c3F)C[C@H]21` (relative stereo) [I-12], the “In vitro Sensitivity Test S.au 209P” value in [1] amounted to 0.1 µg/mL. Further, the “In vitro Sensitivity Test H.pp M-1” value in [2] came out at 0.2 µg/mL. Also, the “In vitro Sensitivity Test B.br ABU-1” value in experiment [3] is 0.39 µg/mL. The “In vitro Sensitivity Test E.coli JC-2” value in experiment [4] came to 0.1 µg/mL. Further, the “In vitro Sensitivity Test S.typhi 13311” value in experiment [5] amounted to 0.1 µg/mL. For the same molecule, the “antimicrobial activity compared with ERFX” value in [6] is “two times more effective than ERFX”. Moreover, the “complete inihibition of the lesions in air sac at a concentration of” value in experiment [6] (oral administration, MG-infected chicken) is reported as “about 3.13 mg/kg”. In addition, the “In vitro Sensitivity Test P.pis No. 2” value in experiment [7] stood at 0.39 µg/mL. Moreover, in [8], the “In vitro Sensitivity Test Str.sp SNO6119” value was determined as 0.78 µg/mL. For the same molecule, in [9], the “In vitro Sensitivity Test MG S6” value worked out at 0.00313 µg/mL. The “In vitro Sensitivity Test Mh ST-11” value in experiment [10] is below 0.00625 µg/mL.

For the molecule `O=C(O)c1cn(C2CC2)c2c(F)c(N3CC4CCCC(=O)C4C3)c(F)cc2c1=O` (stereo not shown) [I-4], the “In vitro Sensitivity Test S.au 209P” value in experiment [1] is 0.05 µg/mL. Moreover, in [2], the “In vitro Sensitivity Test H.pp M-1” value is 0.2 µg/mL. The “In vitro Sensitivity Test E.coli JC-2” value in experiment [4] was found to be 0.2 µg/mL. The “In vitro Sensitivity Test S.typhi 13311” value in experiment [5] stood at 0.39 µg/mL. Moreover, in experiment [6] (oral 6.25 mg/kg), the “Infectious index Left air sack +” value came to 1, the “Infectious index Left air sack ++” value is reported as 0, the “Infectious index Left air sack +++” value is 0 and the “Infectious index Left air sack -” value was determined as 3. In experiment [6] (oral 6.25 mg/kg), the “Infectious index Right air sack +” value is 1, the “Infectious index Right air sack ++” value is 1, the “Infectious index Right air sack +++” value came to 0 and the “Infectious index Right air sack -” value came out at 2. Further, in experiment [6] (oral 6.25 mg/kg), the “Number of fowl having air sack lesions” value is reported as 2. Besides, in [6] (oral 12.5 mg/kg), the “Infectious index Left air sack +” value worked out at 0, the “Infectious index Left air sack ++” value was found to be 0, the “Infectious index Left air sack +++” value was 0 and the “Infectious index Left air sack -” value worked out at 5. Moreover, in [6] (oral 12.5 mg/kg), the “Infectious index Right air sack +” value amounted to 0, the “Infectious index Right air sack ++” value was determined as 0, the “Infectious index Right air sack +++” value is on record as 0 and the “Infectious index Right air sack -” value is 5. Moreover, the “Number of fowl having air sack lesions” value in [6] (oral 12.5 mg/kg) is on record as 0. In addition, in [6] (oral 25.0 mg/kg), the “Infectious index Left air sack +” value amounted to 0, the “Infectious index Left air sack ++” value is given as 0, the “Infectious index Left air sack +++” value is reported as 0 and the “Infectious index Left air sack -” value is reported as 5. Also, in experiment [6] (oral 25.0 mg/kg), the “Infectious index Right air sack +” value worked out at 0, the “Infectious index Right air sack ++” value was 0, the “Infectious index Right air sack +++” value stood at 0 and the “Infectious index Right air sack -” value turned out to be 5. Moreover, in [6] (oral 25.0 mg/kg), the “Number of fowl having air sack lesions” value was 0. Moreover, the “In vitro Sensitivity Test P.pis No. 2” value in [7] is 6.25 µg/mL. Also, the “In vitro Sensitivity Test Str.sp SNO6119” value in experiment [8] is 0.39 µg/mL. Moreover, the “In vitro Sensitivity Test MG S6” value in experiment [9] was 0.05 µg/mL. In addition, the “In vitro Sensitivity Test Mh ST-11” value in experiment [10] is “≦0.025 µg/ml”.

Take `CCn1cc(C(=O)O)c(=O)c2cc(F)c(N3C[C@H]4CCC[C@@]4(CNC)C3)c(F)c21.Cl` (relative stereo) [I-19, 7-[(1R*,5S*)-1-methylaminomethyl-3-azabicyclo[3.3.0]octan-3-yl]-1-ethyl-6,8-difluoro-1,4-dihydro-4-oxo-3-quinolinecarboxylic acid hydrochloride]: the “Number of infected fowl/Number of fowl tested” value in the experiment with TS-resistant MG (bait 31.3 ppm/Day) is recorded as 1/7; in the experiment with TS-resistant MG (bait 62.5 ppm/Day), 0/7; in the experiment with TS-resistant MG (bait 125 ppm/Day), 0/7; in experiment [6] (oral 1.56 mg/kg), 3/5; in [6] (oral 3.13 mg/kg), 3/5; in experiment [6] (oral 6.25 mg/kg), 1/5. The “In vitro Sensitivity Test S.au 209P” value in experiment [1] was determined as 0.05 µg/mL. The “In vitro Sensitivity Test H.pp M-1” value in experiment [2] came out at 0.78 µg/mL. For the same molecule, the “In vitro Sensitivity Test E.coli JC-2” value in [4] turned out to be 0.39 µg/mL. In experiment [5], the “In vitro Sensitivity Test S.typhi 13311” value was 0.78 µg/mL. Besides, in experiment [7], the “In vitro Sensitivity Test P.pis No. 2” value amounted to 1.56 µg/mL. Also, in [8], the “In vitro Sensitivity Test Str.sp SNO6119” value stood at 1.56 µg/mL. The “In vitro Sensitivity Test MG S6” value in experiment [9] came out at 0.00625 µg/mL. Besides, the “In vitro Sensitivity Test Mh ST-11” value in experiment [10] came to 0.39 µg/mL.

For the molecule `CNC[C@@]12CCC[C@@H]1CN(c1c(F)cc3c(=O)c(C(=O)O)cn(C4CC4)c3c1Cl)C2.Cl` (relative stereo) [I-11, 7-[(1R*,5S*)-1-methylaminomethyl-3-azabicyclo[3.3.0]octan-3-yl]-1-cyclopropyl-8-chloro-6-fluoro-1,4-dihydro-4-oxo-3-quinolinecarboxylic acid hydrochloride], in experiment [6], the “antimicrobial activity compared with ERFX” value was “nearly equal potency to ERFX”.
